In article PMC10507085, “Pharmacological inhibition of TBK1/IKKε blunts immunopathology in a murine model of SARS-CoV-2 infection” (Nature Communications, 2023):

Assays:
Assay in all cases: biochemical
Parameters in all cases: KINOMEscan competition binding, DNA-tagged kinase against immobilised ligand, qPCR read-out
Details in all cases: read-out: Percent Control
ACVR1B = ACVR1B (Homo sapiens, UniProt P36896)
AKT2 = AKT2 (Homo sapiens, UniProt P31751)
BLK = BLK (Homo sapiens, UniProt P51451)
IRAK3 = IRAK3 (Homo sapiens, UniProt Q9Y616)
[1] = target: T1, JAK3(JH1domain-catalytic) (Homo sapiens, UniProt P52333)
T1 construct: JH1 domain catalytic

MAP2K1 = MAP2K1 (Homo sapiens, UniProt Q02750)
MAP3K7 = MAP3K7 (Homo sapiens, UniProt O43318)
NLK = NLK (Homo sapiens, UniProt Q9UBE8)
PAK2 = PAK2 (Homo sapiens, UniProt Q13177)
PI4KB = PI4KB (Homo sapiens, UniProt Q9UBF8)
PRKACA = PRKACA (Homo sapiens, UniProt P17612)
[2] = target: T2, RPS6KA5(Kin.Dom.1-N-terminal) (Homo sapiens, UniProt O75582)
T2 construct: Kin.Dom.1 N-terminal

[3] = target: T3, RSK2(Kin.Dom.2-C-terminal) (Homo sapiens, UniProt P51812)
T3 construct: gene RPS6KA3; Kin.Dom.2 C-terminal

SBK1 = SBK1 (Homo sapiens, UniProt Q52WX2)
STK11 = STK11 (Homo sapiens, UniProt Q15831)
STK24 = STK24 (Homo sapiens, UniProt Q9Y6E0)
TNNI3K = TNNI3K (Homo sapiens, UniProt Q59H18)
TXK = TXK (Homo sapiens, UniProt P42681)
ULK1 = ULK1 (Homo sapiens, UniProt O75385)

Sequence of SBK1 (Q52WX2 whole entry): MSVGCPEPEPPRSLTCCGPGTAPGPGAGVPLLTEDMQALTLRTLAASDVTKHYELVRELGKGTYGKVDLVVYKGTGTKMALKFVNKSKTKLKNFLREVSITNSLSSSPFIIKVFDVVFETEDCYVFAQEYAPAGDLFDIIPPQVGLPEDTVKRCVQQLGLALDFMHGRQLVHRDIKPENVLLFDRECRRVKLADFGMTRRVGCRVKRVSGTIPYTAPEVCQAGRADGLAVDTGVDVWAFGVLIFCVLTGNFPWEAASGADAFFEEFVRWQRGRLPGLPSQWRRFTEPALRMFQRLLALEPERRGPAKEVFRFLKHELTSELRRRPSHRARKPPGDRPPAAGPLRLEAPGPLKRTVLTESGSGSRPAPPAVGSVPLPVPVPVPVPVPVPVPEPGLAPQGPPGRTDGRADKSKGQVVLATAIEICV
Sequence of MAP2K1 (Q02750 whole entry): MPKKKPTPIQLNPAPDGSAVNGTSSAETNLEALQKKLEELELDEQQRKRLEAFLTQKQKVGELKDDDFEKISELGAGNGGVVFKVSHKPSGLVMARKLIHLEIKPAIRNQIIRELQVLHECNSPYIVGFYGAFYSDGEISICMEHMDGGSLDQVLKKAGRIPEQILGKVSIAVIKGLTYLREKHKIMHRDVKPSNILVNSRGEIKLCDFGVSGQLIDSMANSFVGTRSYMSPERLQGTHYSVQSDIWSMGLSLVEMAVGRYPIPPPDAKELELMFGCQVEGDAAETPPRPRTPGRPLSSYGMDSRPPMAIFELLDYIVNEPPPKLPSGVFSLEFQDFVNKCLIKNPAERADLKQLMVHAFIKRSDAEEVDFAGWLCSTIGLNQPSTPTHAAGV
Sequence of BLK (P51451 whole entry): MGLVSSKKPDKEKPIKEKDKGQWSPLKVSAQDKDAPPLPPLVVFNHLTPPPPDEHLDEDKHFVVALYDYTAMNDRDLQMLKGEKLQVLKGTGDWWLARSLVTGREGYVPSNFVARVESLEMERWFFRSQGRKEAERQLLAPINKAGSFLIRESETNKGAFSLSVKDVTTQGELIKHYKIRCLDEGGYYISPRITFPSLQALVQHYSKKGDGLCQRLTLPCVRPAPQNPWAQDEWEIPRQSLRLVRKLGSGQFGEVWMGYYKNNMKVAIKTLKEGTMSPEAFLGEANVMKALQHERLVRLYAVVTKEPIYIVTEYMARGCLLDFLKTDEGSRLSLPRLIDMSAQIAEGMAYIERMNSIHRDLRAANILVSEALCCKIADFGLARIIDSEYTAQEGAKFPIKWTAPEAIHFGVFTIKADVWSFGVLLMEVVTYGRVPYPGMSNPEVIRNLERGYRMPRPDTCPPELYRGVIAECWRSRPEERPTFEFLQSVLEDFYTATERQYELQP
T1 sequence (P52333 whole entry, the tested form may be a part): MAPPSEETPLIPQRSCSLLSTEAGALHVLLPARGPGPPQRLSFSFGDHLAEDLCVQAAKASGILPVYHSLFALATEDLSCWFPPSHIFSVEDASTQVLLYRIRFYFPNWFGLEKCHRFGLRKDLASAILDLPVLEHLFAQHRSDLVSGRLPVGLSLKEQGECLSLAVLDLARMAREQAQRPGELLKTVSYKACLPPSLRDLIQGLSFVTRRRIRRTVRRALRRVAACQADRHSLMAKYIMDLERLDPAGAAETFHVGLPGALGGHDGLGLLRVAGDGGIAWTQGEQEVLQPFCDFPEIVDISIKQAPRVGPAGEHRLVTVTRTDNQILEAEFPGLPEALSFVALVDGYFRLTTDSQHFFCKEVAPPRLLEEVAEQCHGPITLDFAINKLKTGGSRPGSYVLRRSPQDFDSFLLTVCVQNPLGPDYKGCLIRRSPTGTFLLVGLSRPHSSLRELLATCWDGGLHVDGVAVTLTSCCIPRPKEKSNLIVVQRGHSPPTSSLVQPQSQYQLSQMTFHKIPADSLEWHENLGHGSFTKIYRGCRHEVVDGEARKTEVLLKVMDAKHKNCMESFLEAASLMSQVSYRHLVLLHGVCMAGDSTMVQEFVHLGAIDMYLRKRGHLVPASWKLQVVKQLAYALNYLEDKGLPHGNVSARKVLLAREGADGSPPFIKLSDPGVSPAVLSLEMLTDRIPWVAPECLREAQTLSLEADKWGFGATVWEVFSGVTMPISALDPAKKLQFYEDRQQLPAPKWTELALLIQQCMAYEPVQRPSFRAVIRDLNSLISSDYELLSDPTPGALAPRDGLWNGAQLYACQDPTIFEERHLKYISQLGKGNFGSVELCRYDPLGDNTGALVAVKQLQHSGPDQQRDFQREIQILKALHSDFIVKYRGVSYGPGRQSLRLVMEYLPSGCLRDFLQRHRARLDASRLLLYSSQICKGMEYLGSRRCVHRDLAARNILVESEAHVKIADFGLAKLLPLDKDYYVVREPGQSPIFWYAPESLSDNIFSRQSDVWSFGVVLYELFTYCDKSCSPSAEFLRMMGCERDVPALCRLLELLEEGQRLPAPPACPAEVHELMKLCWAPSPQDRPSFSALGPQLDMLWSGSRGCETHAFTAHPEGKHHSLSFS
Sequence of NLK (Q9UBE8 whole entry): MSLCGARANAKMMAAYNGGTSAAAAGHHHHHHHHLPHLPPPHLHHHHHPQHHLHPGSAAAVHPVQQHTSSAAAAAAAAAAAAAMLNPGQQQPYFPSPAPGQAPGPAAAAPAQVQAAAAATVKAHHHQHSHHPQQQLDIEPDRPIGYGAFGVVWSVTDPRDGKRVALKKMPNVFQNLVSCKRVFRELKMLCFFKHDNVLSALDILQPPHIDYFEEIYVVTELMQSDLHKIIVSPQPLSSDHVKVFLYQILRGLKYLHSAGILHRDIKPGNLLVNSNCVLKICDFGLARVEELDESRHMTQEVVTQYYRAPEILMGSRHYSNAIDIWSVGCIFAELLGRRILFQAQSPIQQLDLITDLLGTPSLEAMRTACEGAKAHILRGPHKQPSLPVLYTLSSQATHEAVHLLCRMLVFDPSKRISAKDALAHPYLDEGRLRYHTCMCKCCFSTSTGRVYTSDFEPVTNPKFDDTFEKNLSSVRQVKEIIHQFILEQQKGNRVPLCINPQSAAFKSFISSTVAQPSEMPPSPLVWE
Sequence of MAP3K7 (O43318 whole entry): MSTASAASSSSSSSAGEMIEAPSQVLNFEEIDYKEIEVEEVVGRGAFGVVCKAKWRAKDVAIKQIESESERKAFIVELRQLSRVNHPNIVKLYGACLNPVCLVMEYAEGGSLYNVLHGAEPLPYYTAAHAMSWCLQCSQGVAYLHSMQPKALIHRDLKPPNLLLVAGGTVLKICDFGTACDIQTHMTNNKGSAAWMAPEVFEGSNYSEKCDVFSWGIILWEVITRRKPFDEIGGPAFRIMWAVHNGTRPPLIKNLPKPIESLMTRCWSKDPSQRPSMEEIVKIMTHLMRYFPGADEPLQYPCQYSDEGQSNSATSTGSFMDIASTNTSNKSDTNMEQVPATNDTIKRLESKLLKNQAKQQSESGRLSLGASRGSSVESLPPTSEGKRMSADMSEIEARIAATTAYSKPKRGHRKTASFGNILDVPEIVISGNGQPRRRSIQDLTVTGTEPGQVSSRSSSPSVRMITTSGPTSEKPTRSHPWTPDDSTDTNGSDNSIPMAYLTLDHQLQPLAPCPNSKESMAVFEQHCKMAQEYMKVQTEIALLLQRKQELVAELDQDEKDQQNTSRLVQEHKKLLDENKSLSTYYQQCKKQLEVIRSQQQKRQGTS
T3 sequence (P51812 whole entry): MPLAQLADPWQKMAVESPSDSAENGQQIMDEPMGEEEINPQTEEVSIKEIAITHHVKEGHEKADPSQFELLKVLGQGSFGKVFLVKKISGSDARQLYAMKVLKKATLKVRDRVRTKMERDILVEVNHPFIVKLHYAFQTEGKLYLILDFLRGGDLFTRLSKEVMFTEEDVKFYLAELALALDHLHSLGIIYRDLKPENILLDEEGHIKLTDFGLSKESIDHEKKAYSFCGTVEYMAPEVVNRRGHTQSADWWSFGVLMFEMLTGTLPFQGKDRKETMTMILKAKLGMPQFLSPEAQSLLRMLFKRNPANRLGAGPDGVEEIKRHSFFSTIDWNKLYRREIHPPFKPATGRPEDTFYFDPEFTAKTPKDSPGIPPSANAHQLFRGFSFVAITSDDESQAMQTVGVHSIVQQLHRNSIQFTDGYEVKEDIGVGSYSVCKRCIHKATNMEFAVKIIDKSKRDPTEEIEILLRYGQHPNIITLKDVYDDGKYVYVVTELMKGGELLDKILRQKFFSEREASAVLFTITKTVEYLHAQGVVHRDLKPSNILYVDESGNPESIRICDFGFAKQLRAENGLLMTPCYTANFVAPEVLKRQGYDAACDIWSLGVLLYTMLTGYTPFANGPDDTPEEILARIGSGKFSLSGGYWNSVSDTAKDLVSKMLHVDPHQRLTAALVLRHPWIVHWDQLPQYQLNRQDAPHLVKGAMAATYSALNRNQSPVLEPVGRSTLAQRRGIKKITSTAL
Sequence of AKT2 (P31751 whole entry): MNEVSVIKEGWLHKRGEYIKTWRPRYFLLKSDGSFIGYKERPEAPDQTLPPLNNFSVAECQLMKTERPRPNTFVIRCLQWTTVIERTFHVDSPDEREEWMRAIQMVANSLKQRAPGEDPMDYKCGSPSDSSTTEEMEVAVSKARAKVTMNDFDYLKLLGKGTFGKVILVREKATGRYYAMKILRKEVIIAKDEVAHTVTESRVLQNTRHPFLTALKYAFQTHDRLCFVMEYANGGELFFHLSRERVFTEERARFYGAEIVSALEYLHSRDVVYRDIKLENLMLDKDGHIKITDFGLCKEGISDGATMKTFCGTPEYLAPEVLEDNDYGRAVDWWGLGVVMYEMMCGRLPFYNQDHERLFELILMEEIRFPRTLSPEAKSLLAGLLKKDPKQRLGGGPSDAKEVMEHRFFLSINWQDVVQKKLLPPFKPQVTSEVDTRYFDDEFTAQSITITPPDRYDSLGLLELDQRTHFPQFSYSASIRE

Compound: Oc1ccc(C2=Cc3ccc(O)cc3OC2)cc1 [compound 1, idronoxil]
- remaining binding at 10 µM (ACVR1B): 87%
- remaining binding at 10 µM (AKT2): 90%
- remaining binding at 10 µM (BLK): 57%
- remaining binding at 10 µM (IRAK3): 77%
- remaining binding at 10 µM [1]: 52%
- remaining binding at 10 µM (MAP2K1): 86%
- remaining binding at 10 µM (MAP3K7): 89%
- remaining binding at 10 µM (NLK): 67%
- remaining binding at 10 µM (PAK2): 49%
- remaining binding at 10 µM (PI4KB): 63%
- remaining binding at 10 µM (PRKACA): 78%
- remaining binding at 10 µM [2]: 100%
- remaining binding at 10 µM [3]: 95%
- remaining binding at 10 µM (SBK1): 91%
- remaining binding at 10 µM (STK11): 81%
- remaining binding at 10 µM (STK24): 79%
- remaining binding at 10 µM (TNNI3K): 99%
- remaining binding at 10 µM (TXK): 87%
- remaining binding at 10 µM (ULK1): 89%
